Assay results reported in patent US11248234B2, “Herbicide-resistant hydroxyphenylpyruvate dioxygenases” (BASF SE, priority 2015, dated 2022).
“Also recorded” adds a separate entry of the source.

Columns and labels:
Assay in all cases: In vitro HPPD activity assay
Type in all cases: biochemical, Scenedesmus obliquus
Details in all cases: normalized on Arabidopsis wild-type HPPD (SEQ ID NO:42)
[1] = test system: SoHPPD A318P, A319P (short)
Method: (§1) HPPD produces homogentisic acid and CO2 from 4-hydroxyphenylpyruvate (4-HPP) and O2. The activity assay for HPPD is based on the analysis of homogentisic acid by reversed phase HPLC.
(§2) The assay mixture can contain 150 mM potassium phosphate buffer pH 7.0, 50 mM L-ascorbic acid, 100 μM Catalase (Sigma-Aldrich), 1 μM FeSO4 and 0.2 units of purified mutated HPPD enzyme in a total volume of 505 μl. 1 unit is defined as the amount of enzyme that is required to produce 1 nmol of HGA per minute at 20° C.
(§3) After a preincubation of 30 min the reaction is started by adding 4-HPP to a final concentration of 0.05 mM. The reaction is allowed to proceed for 45 min at room temperature. The reaction is stopped by the addition of 50 μl of 4.5 M phosphoric acid. The sample is filtered using a […] pore size PVDF filtration device.
(§4) 5 μl of the cleared sample is analyzed on an UPLC HSS T3 column (particle size 1.8 μm, dimensions 2.1×50 mm; Waters) by isocratic elution using 90% 20 mM NaH2PO4 pH 2.2, 10% methanol (v/v).
(§5) HGA is detected electrochemically at 750 mV (mode: DC; polarity: positive) and quantified by integrating peak areas (Empower software; Waters).
(§6) Inhibitors are dissolved in DMSO (dimethylsulfoxide) to a concentration of 0.5 mM. From this stock solution serial five-fold dilutions are prepared in DMSO, which are used in the assay. The respective inhibitor solution accounts for 1% of the assay volume. Thus, final inhibitor concentrations range from 5 μM to 320 pM, respectively. Activities are normalized by setting the uninhibited enzyme activity to 100%. IC50 values are calculated using non-linear regression.
(§7) Using methods which are described in the above examples or well known in the art, purified, recombinant mutated HPPD enzymes are characterized with respect to their kinetic properties and sensitivity towards HPPD inhibiting herbicides. Apparent michaelis constants (Km) and maximal reaction velocities (Vmax) are calculated by non-linear regression with the software GraphPad Prism 5 (GraphPad Software, La Jolla, USA) using a substrate inhibition model. Apparent kcat values are calculated from Vmax assuming 100% purity of the enzyme preparation. Weighted means (by standard error) of Km and IC50 values are calculated from at least three independent experiments. The Cheng-Prusoff equation for competitive inhibition (Cheng, Y. C.; Prusoff, W. H. Biochem Pharmacol 1973, 22, 3099-3108) is used to calculate dissociation constants (Ki).
(§8) Field performance of the HPPD enzyme, which is used as a herbicide tolerance trait may depend not only on its lack of sensitivity towards HPPD inhibiting herbicides but also on its activity. To assess the potential performance of a herbicide tolerance trait a tolerance index (TI) is calculated using the following formula: […]
(§9) Easy comparison and ranking of each trait is enabled by normalizing tolerance indexes on Arabidopsis wild-type HPPD.

[2] = test system: SoHPPD L367V, I375L (short)
Method: as §1, §2, §3, §4, §5, §6, §7, §8, §9

SoHPPD F363I = test system: SoHPPD F363I
Method: as §1, §2, §3, §4, §5, §6, §7, §8, §9

[3] = test system: SoHPPD Q317H, A318G, E345Q (short)
Method: as §1, §2, §3, §4, §5, §6, §7, §8, §9

SoHPPD Q317H = test system: SoHPPD Q317H
Method: as §1, §2, §3, §4, §5, §6, §7, §8, §9

SoHPPD A318R, L350M = test system: SoHPPD A318R, L350M
Method: as §1, §2, §3, §4, §5, §6, §7, §8, §9

SoHPPD Q317M (short) = test system: SoHPPD Q317M (short)
Method: as §1, §2, §3, §4, §5, §6, §7, §8, §9

[4] = test system: SoHPPD R327G, E421D (short)
Method: as §1, §2, §3, §4, §5, §6, §7, §8, §9

SoHPPD I419V (short) = test system: SoHPPD I419V (short)
Method: as §1, §2, §3, §4, §5, §6, §7, §8, §9

SoHPPD E379Q (short) = test system: SoHPPD E379Q (short)
Method: as §1, §2, §3, §4, §5, §6, §7, §8, §9

[5] = test system: SoHPPD F39W, L367V, I375L (short)
Method: as §1, §2, §3, §4, §5, §6, §7, §8, §9

[6] = test system: SoHPPD E345Q, K326D (short)
Method: as §1, §2, §3, §4, §5, §6, §7, §8, §9

[7] = test system: SoHPPD Q317H, A318G, E345Q
Method: as §1, §2, §3, §4, §5, §6, §7, §8, §9

[8] = test system: SoHPPD A318R, L350M (short)
Method: as §1, §2, §3, §4, §5, §6, §7, §8, §9

SoHPPD E345Q (short) = test system: SoHPPD E345Q (short)
Method: as §1, §2, §3, §4, §5, §6, §7, §8, §9

SoHPPD V251A (short) = test system: SoHPPD V251A (short)
Method: as §1, §2, §3, §4, §5, §6, §7, §8, §9

SoHPPD F363I (short) = test system: SoHPPD F363I (short)
Method: as §1, §2, §3, §4, §5, §6, §7, §8, §9

SoHPPD I455V = test system: SoHPPD I455V
Method: as §1, §2, §3, §4, §5, §6, §7, §8, §9

SoHPPD Q317H (short) = test system: SoHPPD Q317H (short)
Method: as §1, §2, §3, §4, §5, §6, §7, §8, §9

[9] = test system: SoHPPD K326E, E345Q (short)
Method: as §1, §2, §3, §4, §5, §6, §7, §8, §9

SoHPPD L367V, I375L = test system: SoHPPD L367V, I375L
Method: as §1, §2, §3, §4, §5, §6, §7, §8, §9

[10] = test system: SoHPPD E345Q, K326Q (short)
Method: as §1, §2, §3, §4, §5, §6, §7, §8, §9

SoHPPD H306K (short) = test system: SoHPPD H306K (short)
Method: as §1, §2, §3, §4, §5, §6, §7, §8, §9

[11] = test system: SoHPPD V251A, H306R, Q317L, A318P, G321P, K331E, L350M (short)
Method: as §1, §2, §3, §4, §5, §6, §7, §8, §9

Compound	TI (normalized tolerance index) [1]	TI (normalized tolerance index) [2]	TI (normalized tolerance index) (SoHPPD F363I)	TI (normalized tolerance index) [3]	TI (normalized tolerance index) (SoHPPD Q317H)	TI (normalized tolerance index) (SoHPPD A318R, L350M)	TI (normalized tolerance index) (SoHPPD Q317M (short))	TI (normalized tolerance index) [4]	TI (normalized tolerance index) (SoHPPD I419V (short))	TI (normalized tolerance index) (SoHPPD E379Q (short))	TI (normalized tolerance index) [5]	TI (normalized tolerance index) [6]	TI (normalized tolerance index) [7]	TI (normalized tolerance index) [8]	TI (normalized tolerance index) (SoHPPD E345Q (short))	TI (normalized tolerance index) (SoHPPD V251A (short))	TI (normalized tolerance index) (SoHPPD F363I (short))	TI (normalized tolerance index) (SoHPPD I455V)	TI (normalized tolerance index) (SoHPPD Q317H (short))	TI (normalized tolerance index) [9]	further results
CS(=O)(=O)c1ccc(C(=O)C2C(=O)CCCC2=O)c([N+](=O)[O-])c1 [Inhibitor 2, 2-(4-methylsulfonyl-2-nitro-benzoyl)cyclohexane-1,3-dione]	0.2	0.0	0.1	0.4	0.1	0.1	0.6	0.2	0.1	0.0	0.0	0.1	0.1	0.8	0.5	0.0	0.8	0.1	0.2	0.0	TI (normalized tolerance index) (SoHPPD L367V, I375L): 0.0; TI (normalized tolerance index) [10]: 0.1; TI (normalized tolerance index) (SoHPPD H306K (short)): 0.1; TI (normalized tolerance index) [11]: 0.7
CCS(=O)(=O)c1cc(C(F)(F)F)ccc1C1=C(O)c2ncccc2C(C)(C)S1(=O)=O [Inhibitor 4, 7-[2-ethylsulfonyl-4-(trifluoromethyl)phenyl]-5,5-dimethyl-6,6-dioxo-thiopyrano[4,3-b]pyridin-8-ol]	0.6	0.3	0.1	1.4	0.3	0.3	1.3	0.0	0.3	0.1	0.2	0.0	0.4	1.0	0.3	0.0	0.3	0.5	0.6	0.0	TI (normalized tolerance index) (SoHPPD L367V, I375L): 0.2; TI (normalized tolerance index) [10]: 0.0; TI (normalized tolerance index) (SoHPPD H306K (short)): 0.3; TI (normalized tolerance index) [11]: 0.0
CC(=O)N(C)c1c(Cl)ccc(C2=C(O)c3ncccc3C(C)(C)S2(=O)=O)c1Cl [Inhibitor 5, N-[2,6-dichloro-3-(8-hydroxy-5,5-dimethyl-6,6-dioxo-thiopyrano[4,3-b]pyridin-7-yl)phenyl]-N-methyl-acetamide]	0.5	0.3	0.4	0.9	0.2	0.2	0.9	0.3	0.1	0.0	0.1	0.2	0.2	0.7	0.2	0.0	0.6	0.7	0.4	0.0	TI (normalized tolerance index) (SoHPPD L367V, I375L): 0.1; TI (normalized tolerance index) [10]: 0.2; TI (normalized tolerance index) (SoHPPD H306K (short)): 0.2; TI (normalized tolerance index) [11]: 0.3
CCSc1ccc(Cl)c(C(=O)Nc2nnnn2C)c1Cl [Inhibitor 8, 2,6-dichloro-3-ethylsulfanyl-N-(1-methyltetrazol-5-yl)benzamide]	0.8	0.7	no inhibition; also recorded: no inhi-	1.0	0.1	0.2	0.8	0.5	0.3	0.4	0.5	0.3	0.1	1.2	0.5	0.1	not inhibited; also recorded: no inhi-	0.3	0.5	0.1	TI (normalized tolerance index) (SoHPPD L367V, I375L): 0.0; TI (normalized tolerance index) [10]: 0.3; TI (normalized tolerance index) (SoHPPD H306K (short)): 0.3; TI (normalized tolerance index) [11]: 0.2
